What was measured:
50 kinases = assay: Kinase profiling (KinaseSeeker, split-luciferase); assay type: biochemical; details: 10 μM
Experimental: Since ABC transporters are ATP dependent efflux pumps and several kinase targets have been implicated in the patent literature with structurally similar scaffolds, SID 88095709 was profiled against 50 kinasesat a single concentration of 10 μM to assess promiscuity of the chemotype.^66 SID 88095709 was dissolved in DMSO and tested at a final concentration of 10 μM. Prior to initiating a profiling campaign, the compound was evaluated for false positive against split-luciferase. Profiling was done in duplicate for SID 88095709 against each kinase. The Percent Inhibition and Percent Activity Remaining arecalculated using the following equation: % Inhibition=ALUControl−ALUSample×100 ALUControl % Activity Remaining=100−% Inhibition The team has also submitted SID 88095709 and the analog SID 97301789 to the NIH National Cancer Institute to elucidate the effect of SID 88095709 on the cancer cell line panel. Discussion

[1] = test system: ABCG2 over-expressing Ig-MXP3 cells; assay: Chemoreversal assay: potentiation of mitoxantrone (MTX) killing; assay type: cell-based
Experimental: Cells (ABCB1, Jurkat-DNR or ABCG2 Ig-MXP3) are incubated with the test compound (3 order of magnitude concentration range) over a 3-day and 7-day period in the presence of the inhibitor and chemotherapeutic (ABCB1, DNR or ABCG2 MTX), such that a cell concentration of at least 1×10^5 cells/mL is maintained. Cell viability is determined by trypan blue staining and enumeration under light microscopy. […] A chemoreversal index (Chemoreversal 50, CR50) is determined from the viability assessment. Using a similar approach, a direct cytotoxicity index (Toxic Dose 50, TD50) is determined by assessment of cell death of cells grown in media alone.
Cells (ABCB1, Jurkat-DNR or ABCG2 Ig-MXP3) were incubated with the test compound in a 3 order of magnitude concentration range over three and seven day periods in the presence of the inhibitor and chemotherapeutic (ABCB1, 100 nM DNR or ABCG2 30 nM MTX), such that a cell concentration of at least 1×10^5 cells mL^−1 was maintained. Cell viability was determined by trypan blue staining and enumeration under light microscopy. […] A chemoreversal index (Chemoreversal 50, CR50) was determined from the viability assessment. Using a similar approach, a direct cytotoxicity index (Toxic Dose 50, TD50) was determined by assessment of cell death of cells grown in media alone.

Structure (SMILES): O=C(c1ccoc1)N1CCN(c2cc(-c3ccco3)nc3cc(-c4ccccc4)nn23)CC1 [Compound 1, (4-(5-(furan-2-yl)-2-phenylpyrazolo[1,5-a]pyrimidin-7-yl)piperazin-1-yl)(furan-3-yl)methanone]
- kinase inhibition profile (50 kinases): appears to not be a kinase inhibitor
- selectivity in chemoreversal (cell killing assay) ([1]; ABCG2 vs ABCB1): 1.8 fold
- EC50 ([1]; Ig-MXP3 cells, constant 30 nM MTX, varied inhibitor dose, read-out: CR50 ABCG2): 310 nM

Source: patent US9056111B1, “Selective efflux inhibitors and related pharmaceutical compositions and methods of treatment” (STC.UNM, priority 2011, dated 2015)
